Results taken from patent US20260297542A1, “HERBICIDE RESISTANT PLANTS” (SYNGENTA CROP PROTECTION AG, priority 2023, published 2026).
Substitutions are numbered along the chain they refer to.

Assays:
[1] = target: T1, AtPPO1 S305L G404A Y426V T431R L479N (SEQ ID NO.127) (Arabidopsis thaliana, UniProt P55826, G404A/L479N/S305L/T431R/Y426V); experiment: fluorescent Protoporphyrinogen Oxidase assay, crude extract; assay type: biochemical; settings: read-out: percentage inhibition
T1 construct: made in house; host or cells: E. coli BL21 (DE3) hemG, crude extract
T1 sequence (P55826 35-537 S305L/G404A/Y426V/T431R/L479N): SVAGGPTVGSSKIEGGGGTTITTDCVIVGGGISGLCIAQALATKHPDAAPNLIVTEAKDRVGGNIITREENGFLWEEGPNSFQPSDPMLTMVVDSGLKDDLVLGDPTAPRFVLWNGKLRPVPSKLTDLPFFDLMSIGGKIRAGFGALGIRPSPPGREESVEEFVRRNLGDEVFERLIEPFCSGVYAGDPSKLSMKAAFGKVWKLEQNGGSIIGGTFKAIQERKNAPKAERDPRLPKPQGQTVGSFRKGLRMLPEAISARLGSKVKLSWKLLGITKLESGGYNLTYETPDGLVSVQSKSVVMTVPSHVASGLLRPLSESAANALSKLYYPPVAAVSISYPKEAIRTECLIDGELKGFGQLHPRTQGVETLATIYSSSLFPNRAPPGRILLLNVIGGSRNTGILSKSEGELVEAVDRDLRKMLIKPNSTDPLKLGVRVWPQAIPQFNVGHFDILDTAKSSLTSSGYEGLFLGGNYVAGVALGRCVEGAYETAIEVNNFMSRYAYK
Protocol: (§1) A pET24 plasmid containing a DNA sequence encoding each identified variant mutant of AtPPO1 derived from Arabidopsis thaliana, codon-optimised for expression in E. coli, and under control of a T7 promoter, was synthesised by Twist Bioscience. This plasmid was expressed in E. coli BL21 (DE3) hemG with 50 μg/mL kanamycin and 25 μg/mL chloramphenicol selection. Overnight cultures grown at 37° C. were used to inoculate 150 ml AIM (AIM-Terrific Broth Base including Trace elements, Formedium) in 500 ml shake flasks at a ratio of 1:100. Cultures were grown at 37° C., 200 rpm for 3 hours and then overnight at 26° C. Cells were harvested by 4° C. centrifugation for 20 minutes at 600 rpm. Cells were stored at −80° C. until extraction. 0.5-1 g of cell pellet from was thawed and resuspended in ratio of 1:1 in lysis buffer (20 mM Tris pH8, 500 mM sodium chloride, 10% glycerol, 1× complete Protease EDTA-free Inhibitor Tablet (Roche)). The resuspension was sonicated at 50% using 10-20 cycles of 10 seconds, 20 seconds off. After sonication Triton X-100 was added to the lysates at a final concentration of 0.5%. The lysates were centrifuged at 13.00 rpm for 10 min at 4° C. The crude extracts (i.e, supernatants) were stored at −80° C. Protein concentration was measured and calculated using the absorbance at 280 nm. Extracts were diluted 1 in 4 and 10 uL was analysed by SDS PAGE.
(§2) Variant crude extracts were assayed in a fluorescent Protoporphyrinogen Oxidase assay in black 384 well plates with a clear bottom. The total volume of the reaction mixture was 100 ul and contained 100 mM K2HPO4 pH7.2, 1 mM Na2EDTA, 5 mM DTT, 20% glycerol (v/v), 0.025% Tween 20 (v/v). Reactions were started with addition of 1 uM protoporphyrinogen IX final assay concentration. Fluorescence was monitored over 30 min using a Tecan plate reader with an excitation wavelength of 405 nm, emission wavelength of 635 nm, gain of 90 and 15 flashes. 10 ul of 3-fold serial dilution of crude extract in 100 mM K2HPO4 pH7.2, 1 mM Na2EDTA, 5 mM DTT, 20% glycerol (v/v), 0.05% Tween 20 (v/v) was tested in the assay against 1% DMSO and 100 ppm herbicide B to determine the correct amount of crude extract to add to the assay to observe activity. 10 ul of the appropriate crude extract dilution was then tested in the fluorescent Protoporphyrinogen Oxidase assay against DMSO and 10-fold dose response of each compound (herbicides A to E) with a top rate of 100 ppm.
(§3) The percentage inhibition was calculated as the activity in the presence of one of four concentrations of each herbicide compound A to E (note that the compounds labelled as A to E are identified hereinabove in the relevant section of the description) as a percentage of the enzyme activity in DMSO (Table 5).

[2] = target: T2, AtPPO1 S305L V365M (SEQ ID NO.128) (Arabidopsis thaliana, UniProt P55826, S305L/V365M); experiment: as above; assay type: biochemical; settings: read-out: percentage inhibition
T2 construct: made in house; host or cells: E. coli BL21 (DE3) hemG, crude extract
T2 sequence (P55826 35-537 S305L/V365M): T1 sequence (P55826 35-537 S305L/G404A/Y426V/T431R/L479N) with V331M, A370G, V392Y, R397T, N445L
Protocol: as §1, §2, §3

SMILES	inhibition at 0.1 ppm [1] [%]	inhibition at 1 ppm [1] [%]	inhibition at 10 ppm [1] [%]	inhibition at 100 ppm [1] [%]	inhibition at 0.1 ppm [2] [%]	inhibition at 1 ppm [2] [%]	inhibition at 10 ppm [2] [%]	inhibition at 100 ppm [2] [%]
CCOC(=O)C1(C)CC(c2cc(-n3c(=O)cc(C(F)(F)F)n(C)c3=O)c(F)cc2Cl)=NO1 (stereo not shown) [Herbicide C, 3-(2-chloro-4-fluoro-5-(3-methyl-2,6-dioxo-4-trifluoromethyl-3,6-dihydropyrimidin-1(2H)-yl)phenyl)-5-methyl-4,5-dihydroisoxazole-5-carboxylic acid ethyl ester]	47	57	83	96	45	76	95	100
C#CCN1C(=O)C(F)(F)Oc2cc(F)c(-n3c(=O)n(C)c(=S)n(C)c3=O)cc21 [Herbicide B, trifludimoxazin]	91	100	100	100	100	97	95	100
CCOC(=O)[C@]1(C)CC(c2cc(-n3c(=O)n(C)c(=S)n(C)c3=O)c(F)cc2Cl)=NO1 [Herbicide D, ethyl (5S)-3-[2-chloro-5-(3,5-dimethyl-2,6-dioxo-4-thioxo-1,3,5-triazinan-1-yl)-4-fluoro-phenyl]-5-methyl-4H-isoxazole-5-carboxylate]	13	40	75	92	51	84	96	100
CCOC(=O)COc1ncccc1Oc1cc(-n2c(=O)cc(C(F)(F)F)n(C)c2=O)c(F)cc1Cl [Herbicide A, epyrifenacil]	9	45	69	88	41	64	92	91
CC(C)N(C)S(=O)(=O)NC(=O)c1cc(-n2c(=O)cc(C(F)(F)F)n(C)c2=O)c(F)cc1Cl [Herbicide E, saflufenacil]	11	48	75	92	0	71	91	100
